Reference: patent US9078805B2, “Method for producing a drug delivery system on the basis of polyelectrolyte complexes” (LEIBNIZ-INSTITUT FUER POLYMER-FORSCHUNG DRESDEN E.V., priority 2010, dated 2015)

Experiment: Release of the bisphosphonate and stability of the PEC carrier layer on a germanium model substrate, measured via spectroscopic methods
Type: physicochemical
Conditions: after 1 minute; layer applied and dried on the same germanium model substrate
Experimental: 50 microliter of this drug-loaded PEC dispersion was brushed onto an inorganic planar model substrate of germanium and dried in the drying oven at 50° C. The measurement of the release of the bisphosphonate and the stability of the PEC carrier layer was carried out via spectroscopic methods. After 24 hours a relative reduction of the bisphosphonate content of the PEC/drug layer of approximately 50% resulted. […] For a layer of the pure bisphosphonate applied and dried on the same model substrate as in the case of PEC/drug, after 1 minute an immediate detachment and thus a relative reduction of the bisphosphonate content of approximately 100% resulted.

NCCC(O)(P(=O)(O)O)P(=O)(O)O [pure bisphosphonate, pamidronate]
relative reduction of the bisphosphonate content (immediate detachment): approximately 100%
